# Measurements taken from US8178522B2, “Thiazoles” (Hoffmann-La Roche Inc., priority 2009, dated 2012).
# pKi: −log10 of the molar value.
# Target: T1, GABA A α5 (α5β3γ2) (Homo sapiens, UniProt P18507+P31644)
# T1 construct: expressed in transfected cells; host or cells: HEK293, transiently transfected; membrane preparation
# Test: [3H]flumazenil competition binding, human GABA A α5 receptor
# Details: human receptor α5β3γ2 transiently transfected in HEK293 cells; competition for [3H]flumazenil 0.5 nM; 1 hour at 4° C.; means of two determinations; read-out: hKi GABA A α5
# Procedure, shortened: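 Competition with [3H]flumazenil at membranes from HEK293 cells transiently expressing human α5β3γ2, in Krebs-tris buffer pH 7.5. Equilibrium 1 hour at 4° C, filtration with ice-cold 50 mM Tris wash, scintillation counting. Ki values are means of two determinations.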
row,SMILES,pKi
1,"Cc1nc(CCc2c(-c3ccccn3)noc2C)sc1C(N)=O [Example 18, 4-Methyl-2-[2-(5-methyl-3-pyridin-2-yl-isoxazol-4-yl)-ethyl]-thiazole-5-carboxylic acid amide]",7.49
2,"Cc1onc(-c2ccccc2)c1CCc1ncc(C(=O)NC(C)C)s1 [Example 7, 2-[2-(5-Methyl-3-phenyl-isoxazol-4-yl)-ethyl]-thiazole-5-carboxylic acid isopropyl-amide]",7.86
3,"CCNC(=O)c1cnc(CCc2c(-c3ccc(F)cn3)noc2C)s1 [Example 46, 2-{2-[3-(5-Fluoro-pyridin-2-yl)-5-methyl-isoxazol-4-yl]-ethyl}-thiazole-5-carboxylic acid ethylamide]",7.74
4,"Cc1onc(-c2ccccc2)c1COc1ncc(C(=O)NCCO)s1 [Example 130, 2-(5-Methyl-3-phenyl-isoxazol-4-ylmethoxy)-thiazole-5-carboxylic acid (2-hydroxy-ethyl)-amide]",8.27
5,"CNC(=O)c1sc(CCc2c(-c3ccc(F)cn3)noc2C)nc1C [Example 39, 2-{2-[3-(5-Fluoro-pyridin-2-yl)-5-methyl-isoxazol-4-yl]-ethyl}-4-methyl-thiazole-5-carboxylic acid methylamide]",7.60
6,"CCNC(=O)c1sc(CCc2c(-c3ccc(F)cn3)noc2C)nc1C [Example 38, 2-{2-[3-(5-Fluoro-pyridin-2-yl)-5-methyl-isoxazol-4-yl]-ethyl}-4-methyl-thiazole-5-carboxylic acid ethylamide]",7.97
7,"Cc1onc(-c2ccc(F)cn2)c1CCc1ncc(C(=O)NC(C)C)s1 [Example 41, 2-{2-[3-(5-Fluoro-pyridin-2-yl)-5-methyl-isoxazol-4-yl]-ethyl}-thiazole-5-carboxylic acid isopropylamide]",7.97
8,"Cc1nc(CCc2c(-c3ccccn3)noc2C)sc1C(=O)NCCO [Example 14, 4-Methyl-2-[2-(5-methyl-3-pyridin-2-yl-isoxazol-4-yl)-ethyl]-thiazole-5-carboxylic acid (2-hydroxy-ethyl)-amide]",7.85
